Experimental data taken from patent US6828458B2, “Topical antiandrogen for hair loss and other hyperandrogenic conditions” (Biophysica, Inc., priority 2000, dated 2004).
Like-named read-outs stand apart in the source and are kept apart here.

Experiments:
[1] = Cutaneous absorption in rabbits, serum analyzed by HPLC; format: in vivo, rabbit; conditions: BP-766 topical twice daily (0.6 mg/kg-day) for ten days, limit of detection approximately 10 ng/ml
Procedure: (§1) BP-766 was applied topically twice daily to simulate the intended human application (0.6 mg/kg-day), on the two 10 cm^2 separate areas of a closely shaved skin of four rabbits, for ten days. One ml blood samples were collected at 2, 5 and 21 hours after the first application, and once every other day thereafter. Serum was analyzed by HPLC. Using spiked and blank serum samples and a linearity determination, the limits of detection of BP-766 and/or BP-34 were established as approximately 10 ng/ml. […] The cutaneous absorption in rabbits is known to be about 5 to 6 times greater than in humans (Marzulic, F. N. and Maibach, H.: Dermatotoxicology, 5th Edition, Taylor & Frasier, Washington, D.C. 1966) so that even with the detection limits of this method, only trace amounts could ever be expected in humans.

[2] = target: T1, Androgen Receptor (Homo sapiens, UniProt P10275, T878A); experiment: Androgen receptor remaining in LNCaP cells after incubation, Western Blot of lysate; format: cell-based; conditions: for Percent Androgen Receptor Remaining in LNCaP Cells: 48 hrs. incubation
T1 construct: endogenous in cells; host or cells: LNCaP cells
T1 sequence (P10275 1-920 T878A): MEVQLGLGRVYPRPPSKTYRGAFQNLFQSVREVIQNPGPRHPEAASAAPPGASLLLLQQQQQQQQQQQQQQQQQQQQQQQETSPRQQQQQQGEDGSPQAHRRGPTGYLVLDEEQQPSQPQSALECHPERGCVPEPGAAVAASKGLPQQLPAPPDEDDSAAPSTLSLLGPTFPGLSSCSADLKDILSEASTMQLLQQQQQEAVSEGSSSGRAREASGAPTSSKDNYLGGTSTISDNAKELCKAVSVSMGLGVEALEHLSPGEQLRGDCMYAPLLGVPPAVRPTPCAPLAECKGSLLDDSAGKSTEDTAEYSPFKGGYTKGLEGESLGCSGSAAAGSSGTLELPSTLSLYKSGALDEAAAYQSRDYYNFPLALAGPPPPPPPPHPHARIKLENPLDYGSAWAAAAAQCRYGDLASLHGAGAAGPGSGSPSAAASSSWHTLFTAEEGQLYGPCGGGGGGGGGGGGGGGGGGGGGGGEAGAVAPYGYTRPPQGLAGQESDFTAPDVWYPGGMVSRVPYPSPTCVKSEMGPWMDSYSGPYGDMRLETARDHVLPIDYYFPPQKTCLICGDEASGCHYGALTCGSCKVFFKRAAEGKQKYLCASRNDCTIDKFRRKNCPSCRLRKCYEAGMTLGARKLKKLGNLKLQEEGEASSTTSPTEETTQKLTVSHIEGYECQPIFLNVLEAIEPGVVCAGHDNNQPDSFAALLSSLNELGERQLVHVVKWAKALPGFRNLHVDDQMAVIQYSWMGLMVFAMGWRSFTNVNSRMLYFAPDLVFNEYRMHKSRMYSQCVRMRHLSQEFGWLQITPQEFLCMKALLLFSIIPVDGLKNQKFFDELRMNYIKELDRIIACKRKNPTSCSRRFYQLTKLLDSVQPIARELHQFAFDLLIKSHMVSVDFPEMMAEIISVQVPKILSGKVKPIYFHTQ
Procedure: The interaction of BP-766 with androgenic receptors was studied by incubation with LNCaP cells, (known to contain human AR), subsequent cell lysis and the Western Blot assay to identify and quantify the androgenic receptors protein.

[3] = tested on: mice; experiment: Systemic toxicity by intraperitoneal injections in mice; format: in vivo, mouse
Procedure: (§2) The systemic toxicity of BP-766 was orientationally evaluated by multiple intraperitoneal (i.p.) injections in mice. […] […] The murine maximum tolerated dose (MTD) was approximately 300 mg/kg.

[4] = tested on: mice; conditions: cited from earlier work
[5] = tested on: Wistar rats; experiment: Acute oral toxicity in Wistar rats; format: in vivo, rat; conditions: male and female
Procedure: (§3) Acute oral toxicity of BP-766 was determined in NMRI mice and Wistar rats.

[6] = tested on: rabbits; experiment: Skin irritation potential according to ISO 10 993-10; format: in vivo, rabbit
Procedure: BP-766 was also evaluated by an independent laboratory according to ISO 10 993-10, in rabbits. A single application of 0.5 ml as a 1% (m/v) solution in anhydrous isopropyl alcohol and/or the vehicle only was employed. The application site was covered in one group, and not covered in an other group, each consisting of six rabbits. […] Non-irritability was defined by an arbitrary index, ranging from 0 to 0.4.

[7] = tested on: volunteers with incipient androgenic effluvium and/or alopecia; experiment: Topical treatment of volunteers with androgenic effluvium and/or alopecia; format: in vivo, human
[8] = Biodegradation in human serum, HPLC; format: in vitro ADME; conditions: 38° C., 0.5 mg/ml
Procedure: BP-766 was tested for degradation by incubation with human serum at 38° C., at a concentration of 0.5 mg/ml. It would be desirable for safety that should BP-766 for any unexpected reason be resorbed from the skin, it should decompose into rapidly excretable non-toxic components. The only products of biodegradation of BP-766 are the precursor BP-34, and trifluoroacetic acid, which both have good biological tolerance. […] (Permadi, H; Lundgren, B; Andersson K; Sundberg C; DePierre J W. Effects of perfluoro fatty acids on peroxisome proliferation and mitochondrialsize in mouse liver: dose and time factors and effect of chain length. Xenobiotica, (1993) Vol 23, No. 7, pp. 761-70). Orientational toxicity of BP-34 is described further below.

[9] = tested on: rabbits; experiment: Cutaneous irritation observed daily in rabbits during ten-day topical application; format: in vivo, rabbit; conditions: topical twice daily for ten days
Procedure: as §1

[10] = Accelerated shelf stability of formulated solutions, HPLC; format: physicochemical; conditions: for BP-766 remaining: anhydrous isopropanol
Source text: (Table 3). […] (Connors, Kenneth A; Amidon, Gordon L.; Stella, Valentino J. Chemical Stability of Pharmaceuticals—A Handbook for Pharmacists. Second Edition, 1986, John Wiley & Sons)

[11] = Acute oral toxicity in NMRI mice; conditions: mouse, in vivo, probit analysis
Procedure: as §3

[12] = Systemic toxicity by intraperitoneal injections in mice; format: in vivo, mouse; conditions: mouse, in vivo, ip, i.p. injections, read-out: murine maximum tolerated dose (MTD)
Procedure: as §2

Compound: 4-nitro-3-trifluoromethyl-N-(2-hydroxy-2-methyl-3-amino [BP-34]
- BP-766 and/or BP-34 found in serum [1]: No BP-766 or BP-34 was found in any of the samples
- effect on the androgenic receptors (in words) [2]: had no effect on the androgenic receptors
- Percent Androgen Receptor Remaining in LNCaP Cells ([2]; 3 μ Molar conc.): 97%
- Percent Androgen Receptor Remaining in LNCaP Cells ([2]; 10 μ Molar conc.): 98%
- murine maximum tolerated dose (MTD) ([3]; i.p. injections): approximately 250 mg/kg
- mortality ([3]; i.p. injections of 100-300 mg/kg): no mortalities
- morbidity / mortality ([3]; i.p., 300 mg/kg): Morbidity, but not mortality, was observed

Compound: O=C(O)C(F)(F)F [trifluoroacetic acid]
- toxicity when fed to mice [4]: showed no toxicity

Compound: CC(C)(O)C(=O)Nc1ccc([N+](=O)[O-])c(C(F)(F)F)c1 [Hydroxyflutamide, reference compound]
- Percent Androgen Receptor Remaining in LNCaP Cells ([2]; 3 μ Molar conc.): 98%
- Percent Androgen Receptor Remaining in LNCaP Cells ([2]; 10 μ Molar conc.): 94%
- effect on the androgenic receptors (in words) ([2]; any concentration, after 48 hrs.): did not a affect the androgenic receptors significantly

Compound: CC(O)(CNC(=O)C(F)(F)F)C(=O)Nc1ccc([N+](=O)[O-])c(C(F)(F)F)c1 (centres unmarked) [BP-766, 2-hydroxy-2-methyl-N-(4-nitro-3-(trifluoromethyl)phenyl)-3-(2,2,2-trifluoroacetylamino)propanamide]
- LD50 [5]: greater than 2500 mg/kg body weight
- skin irritation potential [6]: no skin irritation potential was found
- dermal irritation ([7]; six volunteers, 2% solution in anhydrous isopropanol, 1 ml twice daily on the scalp, 8 weeks): no dermal irritation
- effluvium of the frontal hairline ([7]; six volunteers, 2% solution, 1 ml twice daily, after 2 weeks): arrested the effluvium of the frontal hairline in all six volunteers
- hair regrowth ([7]; two volunteers, after 4 months use): an evident regrowth was observed
- % BP-766 remaining in human serum ([8]; 0 hours): 100%
- % BP-766 remaining in human serum ([8]; 6 hours): 54.3%
- % BP-766 remaining in human serum ([8]; 24 hours): 10.9%
- % BP-766 remaining in human serum ([8]; 48 hours): Traces
- signs of cutaneous irritation [9]: none was detected
- % BP-766 ([10]; 60/40 EtOH/H2O, 55° C., 0 hours): 100%
- % BP-766 ([10]; 60/40 EtOH/H2O, 55° C., 24 hours): 99.1%
- % BP-766 ([10]; 60/40 EtOH/H2O, 55° C., 48 hours): 98.2%
- % BP-766 ([10]; 60/40 EtOH/H2O, RT, 0 hours): 100%
- % BP-766 ([10]; 60/40 EtOH/H2O, RT, 24 hours): 99.9%
- % BP-766 ([10]; 60/40 EtOH/H2O, RT, 48 hours): 99.69%
- % BP-766 ([10]; Isopropanol (3-5% water), 55° C., 0 hours): 100%
- % BP-766 ([10]; Isopropanol (3-5% water), 55° C., 6 hours): 99.6%
- % BP-766 ([10]; Isopropanol (3-5% water), 55° C., 24 hours): 99.1%
- % BP-766 ([10]; Isopropanol (3-5% water), 55° C., 144 hours): 98.7%
- BP-766 remaining ([10]; 0 weeks): 100%
- BP-766 remaining ([10]; 1 week): 99.6%
- BP-766 remaining ([10]; 2 weeks): 99.4%
- BP-766 remaining ([10]; 3 weeks): 99.3%
- BP-766 remaining ([10]; 4 weeks): 99.2%
- BP-766 remaining ([10]; 5 weeks): 98.9%
- BP-766 remaining ([10]; 6 weeks): 98.8%
- BP-766 remaining ([10]; 7 weeks): 98.3%
- BP-766 remaining ([10]; 8 weeks): 98.4%
- LD50 ([11]; female NMRI mice): 2230 mg/kg
- LD50 ([11]; male NMRI mice): 2870 mg/kg
- MTD at 7 days [12]: ~300 mg/kg
- LD50 (daily dose for seven days that resulted in 50% mortality) ([3]; i.p., daily for seven days): 450 mg/kg bw
